Assay results taken from ChEMBL document CHEMBL4371004, “A-C Estrogens as Potent and Selective Estrogen Receptor-Beta Agonists (SERBAs) to Enhance Memory Consolidation under Low-Estrogen Conditions” (J Med Chem, 2018).
Values belong to the molecule of their own block, whether it stands above or below them.

Key:
Estrogen receptor beta [1] = target: T1, Estrogen receptor beta (Homo sapiens, UniProt Q92731)
Estrogen receptor [2] = target: T2, Estrogen receptor (Homo sapiens, UniProt P03372)
T2 sequence (P03372 whole entry): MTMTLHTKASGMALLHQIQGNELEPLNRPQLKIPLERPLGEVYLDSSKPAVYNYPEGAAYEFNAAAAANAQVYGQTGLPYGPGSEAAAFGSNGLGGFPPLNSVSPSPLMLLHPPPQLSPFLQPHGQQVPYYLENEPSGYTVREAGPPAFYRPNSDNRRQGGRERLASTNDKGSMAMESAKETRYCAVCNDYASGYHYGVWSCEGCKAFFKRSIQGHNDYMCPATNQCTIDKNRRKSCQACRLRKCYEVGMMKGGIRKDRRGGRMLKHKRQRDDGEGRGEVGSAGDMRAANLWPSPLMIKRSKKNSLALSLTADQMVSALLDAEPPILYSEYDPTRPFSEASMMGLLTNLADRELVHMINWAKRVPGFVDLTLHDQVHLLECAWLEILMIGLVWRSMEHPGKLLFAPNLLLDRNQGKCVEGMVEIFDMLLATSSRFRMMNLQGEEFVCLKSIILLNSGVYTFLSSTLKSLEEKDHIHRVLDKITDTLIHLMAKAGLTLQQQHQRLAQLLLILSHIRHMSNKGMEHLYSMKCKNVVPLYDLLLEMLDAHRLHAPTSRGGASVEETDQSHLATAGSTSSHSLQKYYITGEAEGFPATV
Description: Agonist activity at estrogen receptor alpha (unknown origin) after 22 hrs by cell-based luciferase reporter gene assay

Estrogen receptor [3] = target: T2, Estrogen receptor; remark: listed apart in the source
Mus musculus [4] = experiment: Memory enhancement effect in C57BL/6 mouse assessed as time spent with moved object at 0.05 mg/kg, ip by novel object recognition test; type: functional
Mus musculus [5] = experiment: Memory enhancement effect in C57BL/6 mouse assessed as time spent with novel object at 0.05 mg/kg, ip by novel object recognition test; type: functional
Mus musculus [6] = experiment: Memory enhancement effect in C57BL/6 mouse assessed as time spent with novel object at 0.05 mg/kg, po administered via gavage by novel object recognition test; type: functional
Mus musculus [7] = experiment: Memory enhancement effect in C57BL/6 mouse assessed as time spent with novel object at 10 pg administered as dorsal hippocampal infusion by novel object recognition test; type: functional
Mus musculus [8] = experiment: Memory enhancement effect in C57BL/6 mouse assessed as time spent with moved object at 0.05 mg/kg, po administered via gavage by object recognition test; type: functional
Mus musculus [9] = experiment: Memory enhancement effect in C57BL/6 mouse assessed as time spent with moved object at 10 pg administered as dorsal hippocampal infusion by novel object recognition test; type: functional
Estrogen receptor beta [10] = target: T1, Estrogen receptor beta; remark: listed apart in the source

T1 sequence (Q92731 whole entry): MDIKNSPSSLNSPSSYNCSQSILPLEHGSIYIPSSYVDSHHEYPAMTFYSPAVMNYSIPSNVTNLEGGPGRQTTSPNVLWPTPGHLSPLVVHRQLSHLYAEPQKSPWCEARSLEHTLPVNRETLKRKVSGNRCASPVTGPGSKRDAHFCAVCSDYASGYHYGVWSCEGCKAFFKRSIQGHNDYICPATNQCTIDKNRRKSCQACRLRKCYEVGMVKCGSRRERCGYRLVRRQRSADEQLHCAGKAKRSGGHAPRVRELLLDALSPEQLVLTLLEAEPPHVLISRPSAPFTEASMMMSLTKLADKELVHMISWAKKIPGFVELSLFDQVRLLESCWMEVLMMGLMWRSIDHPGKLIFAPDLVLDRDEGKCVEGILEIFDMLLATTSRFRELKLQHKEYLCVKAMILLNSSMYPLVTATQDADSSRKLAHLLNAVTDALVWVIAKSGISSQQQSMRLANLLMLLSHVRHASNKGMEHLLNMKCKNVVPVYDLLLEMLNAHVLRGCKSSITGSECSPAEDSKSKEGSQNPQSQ

EC50 (Estrogen receptor beta [1]): 6.29 µM
Compound: C[C@]1(O)CC[C@@H](c2ccc(O)cc2)CC1

EC50 (Estrogen receptor [2]): > 20 µM
EC50 (Estrogen receptor [3]): > 10 µM
Compound: OCC1CC=C(c2ccc(O)cc2)CC1 (racemic)

EC50 (Estrogen receptor beta [1]): 2.7 µM
Compound: OC[C@]1(O)CC[C@H](c2ccc(O)cc2)CC1

Compound: N#CC(Cc1ccc(O)cc1)c1ccc(O)cc1 (stereo not drawn) [DIARYLPROPIONITRILE]
Time (Mus musculus [4]): 3.2 s
Time (Mus musculus [5]): 3.52 s
Time (Mus musculus [6]): 3.89 s
Time (Mus musculus [7]): 2.35 s
Time (Mus musculus [8]): 2.76 s
Time (Mus musculus [9]): 4.5 s

EC50 (Estrogen receptor beta [1]): 21 µM
Compound: C=C1CCC(c2ccc(O)c(C=O)c2)CC1

EC50 (Estrogen receptor beta [1]): 0.25 µM
Compound: Oc1ccc([C@]23CC[C@H](CC2)CO3)cc1

Compound: OCC=C1CCC(c2ccc(O)cc2)CC1 (racemic)
EC50 (Estrogen receptor beta [10]): 0.68 µM

EC50 (Estrogen receptor beta [10]): 1.57 µM
Compound: ON=C1CCC(c2ccc(O)cc2)CC1 (stereo not drawn)

EC50 (Estrogen receptor beta [1]): 19 µM
Compound: O=C1CCC(c2ccc(O)cc2)CC1

EC50 (Estrogen receptor beta [1]): 0.225 µM
Compound: C=C1CCC(c2ccc(O)c(/C=N/O)c2)CC1

EC50 (Estrogen receptor beta [1]): 7.52 µM
Compound: Oc1ccc([C@H]2CC[C@H](O)CC2)cc1

EC50 (Estrogen receptor [2]): > 10 µM
EC50 (Estrogen receptor [3]): > 10 µM
Compound: C=C1CCC(c2ccc(O)cc2)CC1

EC50 (Estrogen receptor [2]): > 10 µM
EC50 (Estrogen receptor [3]): > 10 µM
Compound: CC1CCC(c2ccc(O)cc2)CC1 (stereo not drawn)

EC50 (Estrogen receptor [2]): > 50 µM
EC50 (Estrogen receptor [3]): > 10 µM
Compound: OCCC1CCC(c2ccc(O)cc2)CC1 (stereo not drawn)
